In patent US10035806B2, “Derivatized corroles and metallocorroles and their use as imaging and therapeutic agents” (CALIFORNIA INSTITUTE OF TECHNOLOGY, priority 2015, dated 2018):
Marks after values point to notes of the source that are not given here.

Assays:
Type in all cases: cell-based, human
[1] = system: DU-145, SK-MEL-28, MDA-MB-231, OVCAR-3; test: Uptake of gallium corroles (ImageXpress confocal), cell lines taken together; settings: 30 μM, 37° C., dark
Protocol: The intracellular uptake of gallium corroles was quantified using the ImageXpressultra laser point-scanning confocal microscope (Molecular Devices). The fluorescence image acquisition settings were as previously reported (Lim P, et al. (2012), Chem Res Toxicol 25(2):400-409.). Cells (DU-145, SK-MEL-28, MDA-MB-231, and OVCAR-3) were seeded in 96-well dishes (8×10^3 cells per well in 0.1 mL) and allowed to attach overnight. Complex 1, 2, 3, or 4 was added directly to cell media at 30 μM final concentration or media only control, and incubated for 0.25, 1, 3, or 24 h at 37° C. in the dark under a 5% CO2 atmosphere. Cells were fixed and labeled in situ with WGA-Alexa Fluor 488 conjugate and DAPI to allow for the identification of cell boundary and nucleus, respectively. The quantification of blue (DAPI) fluorescence signals in each sample yielded the total number of cells in that population. Corresponding determination of red (corrole) fluorescence within each cell, corrected for background fluorescence from untreated cells, provided the number of cells containing corroles. For each corrole concentration at various time points, fluorescence data were obtained for 1,000-22,000 individual cells. Data acquisitions and analyses were performed as described (Lim P, et al. (2012), Chem Res Toxicol 25(2):400-409). The percentage of corrole-positive cells and the median fluorescence intensity (median RFU) for each treatment were plotted in a three-axis graph using Microsoft Office Excel 2007 (Microsoft Corporation).
To quantify the kinetics of intracellular uptake and accumulation of each derivative, ImageXpressultra, a laser point-scanning confocal microscope, was used for analyses. […] Cells were incubated at 37° C. in the dark for 0.25, 1, 3, or 24 h. […] Within 15 min, Complex 4 fluorescence was observable in ˜80% of ovarian cancer cells, 97% of breast cancer cells, and >99% of prostate cancer and melanoma cells, whereas up to 3 and 24 h were required to label >80% of cells from all four cancer lines with Complexes 3 and 2, respectively. […]

[2] = system: DU-145, SK-MEL-28, MDA-MB-231, OVCAR-3; test: MTS assay, all four cell lines taken together; settings: Table 1 comparison, 72 h
Text: Reagents were obtained from the indicated suppliers: HBSS without phenol red and trypsin-EDTA (0.25%), Invitrogen/Gibco; PBS, Mediatech; 4′,6-diamidino-2-phenylindole dihydrochloride (DAPI) and DMSO, Sigma-Aldrich; paraformaldehyde, Electron Microscopy Sciences; WGA, Alexa Fluor 488 conjugate, Invitrogen/Molecular Probes; and ProLong Gold Antifade Mountant with DAPI, Life Technologies. Human Cancer Cell Lines. Four cell lines from the NCI60 cell panel (Shoemaker RH (2006) The NCI60 human tumour cell line anticancer drug screen. Nat Rev Cancer 6(10):813-823) representing four distinct tumor types were used in this study: DU-145, prostate; MDA-MB-231, breast; SK-MEL-28, melanoma; and OVCAR-3, ovarian. […]
At the time of drug treatment, stock solutions of 1-4 were diluted to 10-fold the desired final test concentrations with RPMI medium 1640. […] Following 72 h of exposure at 37° C., cell viability was determined using the MTS assay (CellTiter 96 Aqueous One Cell Proliferation Assay; Promega) according to the manufacturer's instructions. Absorbances were measured using a microplate reader (Synergy 4; Biotek Instruments) at 490 nm. […] Spectrophotometric data were analyzed by sigmoid dose-response, nonlinear regression analysis; the IC50, Emax values, and associated SE were calculated using GraphPad Prism 6 (GraphPad Software). […]

SK-MEL-28 [3] = test: NCI60 anticancer drug screen; settings: SK-MEL-28 (Melanoma), 10 μM, 48 h; lethality rather than inhibition
MDA-MB-231 = test: MTS assay (cytotoxicity); settings: MDA-MB-231 (breast), 72 h exposure in the dark, mean of three experiments
Text: (§1) Reagents were obtained from the indicated suppliers: HBSS without phenol red and trypsin-EDTA (0.25%), Invitrogen/Gibco; PBS, Mediatech; 4′,6-diamidino-2-phenylindole dihydrochloride (DAPI) and DMSO, Sigma-Aldrich; paraformaldehyde, Electron Microscopy Sciences; WGA, Alexa Fluor 488 conjugate, Invitrogen/Molecular Probes; and ProLong Gold Antifade Mountant with DAPI, Life Technologies. Human Cancer Cell Lines. Four cell lines from the NCI60 cell panel (Shoemaker RH (2006) The NCI60 human tumour cell line anticancer drug screen. Nat Rev Cancer 6(10):813-823) representing four distinct tumor types were used in this study: DU-145, prostate; MDA-MB-231, breast; SK-MEL-28, melanoma; and OVCAR-3, ovarian. Cells were grown in RPMI 1640 cell culture medium (Mediatech) containing 2 mM L-glutamine, supplemented with 10% FBS (Omega Scientific), and maintained at 37° C. under 5% CO2 in a humidified incubator.
(§2) At the time of drug treatment, stock solutions of 1-4 were diluted to 10-fold the desired final test concentrations with RPMI medium 1640. Aliquots of […] of these diluted solutions were added to the appropriate microtiter wells containing 90 μL of medium, resulting in the required final drug concentrations (eight concentrations per compound, ranging from 0.3 to 600 μM). The final concentration of DMSO in test culture was <1%. […] Following 72 h of exposure at 37° C., cell viability was determined using the MTS assay (CellTiter 96 Aqueous One Cell Proliferation Assay; Promega) according to the manufacturer's instructions. Absorbances were measured using a microplate reader (Synergy 4; Biotek Instruments) at 490 nm. Experiments were performed in triplicate and each dose-response curve represents the mean of three or more independent experiments. Spectrophotometric data were analyzed by sigmoid dose-response, nonlinear regression analysis; the IC50, Emax values, and associated SE were calculated using GraphPad Prism 6 (GraphPad Software).
(§3) The effects of bis-sulfonate, carboxylate, and aminocaproate ring substituents on gallium corrole cytotoxicities were examined using four human cancer cell lines, representing tumors of different origin selected based on previously described sensitivities.

DU-145 = test: MTS assay (cytotoxicity); settings: DU-145 (prostate), 72 h exposure in the dark, MTS assay, mean of three experiments
Text: as §1, §2, §3

SK-MEL-28 [4] = test: MTS assay (cytotoxicity); settings: SK-MEL-28 (melanoma), 72 h exposure in the dark, mean of three experiments
Text: as §1, §2, §3

OVCAR-3 = test: MTS assay (cytotoxicity); settings: OVCAR-3 (ovarian), 72 h exposure in the dark, mean of three experiments
Text: as §1, §2, §3

LOX IMVI = test: NCI60 anticancer drug screen; settings: LOX IMVI (Melanoma), 10 μM, 48 h; lethality rather than inhibition

O=C(O)CCCCCNc1c(F)c(F)c(C2=C3C=CC4=[N+]3[Ga-]35[n]6c2ccc6C(c2c(F)c(F)c(F)c(F)c2F)=c2ccc([n]23)=C(c2c(F)c(F)c(F)c(F)c2F)c2ccc4[n]25)c(F)c1F (centres unmarked) [Complex 3]
time required to label >80% of cells from all four cancer lines [1]: up to 3 h | IC50 lower than Complex 2 [2]: 10 fold | % lethality (SK-MEL-28 [3]): 12.1** % | IC50 (MDA-MB-231): 13.7 µM | IC50 (DU-145): 17.6 µM | IC50 (SK-MEL-28 [4]): 14.4 µM | IC50 (OVCAR-3): 12.7 µM | % lethality (LOX IMVI): 9.7** %
